Our source for the inhibition values is ChEMBL document CHEMBL6120933, “Improving Anti-HIV activity and pharmacokinetics of enfuvirtide (T20) by modification with oligomannose” (Eur J Med Chem, 2024).

The test system of this test is Human immunodeficiency virus 1. Kind of test: Antiviral activity against HIV-1 pseudovirus infected in HEK293T cell transfected with DC-SIGN and luciferase assessed as inhibition of viral entry into cells at 500 uM preincubated with cells for 2 hrs followed by virus addition and measured after 4 hrs by p24 ELISA relative to control. It counts as functional. The settings on record: Human immunodeficiency virus 1, HEK-293T, time 6 hrs. A general note: ELISA stands for enzyme-linked immunosorbent assay.

Each structure is given as a SMILES string.

One may read the inhibition as the drop in the measured response relative to a control, in per cent. With `[N-]=[N+]=NCCO[C@H]1O[C@H](CO[C@H]2O[C@H](CO)[C@@H](O)[C@H](O)[C@@H]2O[C@H]2O[C@H](CO)[C@@H](O)[C@H](O)[C@@H]2O)[C@@H](O)[C@H](O[C@H]2O[C@H](CO)[C@@H](O)[C@H](O)[C@@H]2O[C@H]2O[C@H](CO)[C@@H](O)[C@H](O)[C@@H]2O)[C@@H]1O`, the inhibition at 500 µM worked out at 18%.
